According to US11440923B2, “Substituted macrocyclic indole derivatives” (Bayer Aktiengesellschaft, priority 2017, dated 2022):
Counter-ions that a name gives are not always drawn. Like-named read-outs stand apart in the source and are kept apart here.

Tests used:
MCL-1 = MCL-1 (Homo sapiens (Human), UniProt Q07820, K194A/K197A/R201A); assay: Protein-protein interaction assay MCL-1/Noxa BH3 peptide (MCL-1 assay, TR-FRET); assay type: binding
In short: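 IC50 came from a 4-parameter regression of the 665/620 nm emission ratio, normalized to DMSO controls. The mix held 1 nM MBP-fused MCL-1 (residues 173-321), a biotin-Noxa BH3 tracer and compound in Tris buffer pH 7, incubated 10 min plus 1 h at 22° C., then overnight at 4° C.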

SUDHL10 cells = assay: Induction of caspase-3/7 activity in SUDHL10 cells (Assay 4); assay type: cell-based
In short: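 Read-out: Caspase-Glo 3/7 luminescence (1 h, 37 °C) after cells, plated overnight, were treated with compounds for 3 h at 37 °C. Signal corrected for cell-free medium background and expressed relative to DMSO control mean.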

SUDHL5 cells = assay: Antiproliferation assay SUDHL5 (Assay 7); assay type: cell-based
In short: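 IC50 values reflect growth relative to a day 0 baseline (CI) and DMSO vehicle (C0). Viable cells were quantified by CellTiter-Glo luminescence after 72 h treatment at 37 °C.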

[1] = Homo sapiens, SU-DHL10, 3 h, caspase-3/7 induction, 3 h; read-out: Caspase SUDHL10 EC50 (median)
[2] = Homo sapiens, SU-DHL-5, 72 h, 72 h, CellTiter-Glo; read-out: Antiproli SUDHL5 IC50 (median)
[3] = read-out: Caspase SUDHL10 EC50 (median); caspase-3/7 induction, 3 h
[4] = read-out: Antiproli SUDHL5 IC50 (median); 72 h, CellTiter-Glo
[5] = caspase-3/7 induction, 3 h; read-out: Caspase SUDHL10 EC50 (median)
[6] = 72 h, CellTiter-Glo; read-out: Antiproli SUDHL5 IC50 (median)

Sequence of MCL-1 (Q07820 whole entry, looked up, stated change not applied, the tested form may be a part): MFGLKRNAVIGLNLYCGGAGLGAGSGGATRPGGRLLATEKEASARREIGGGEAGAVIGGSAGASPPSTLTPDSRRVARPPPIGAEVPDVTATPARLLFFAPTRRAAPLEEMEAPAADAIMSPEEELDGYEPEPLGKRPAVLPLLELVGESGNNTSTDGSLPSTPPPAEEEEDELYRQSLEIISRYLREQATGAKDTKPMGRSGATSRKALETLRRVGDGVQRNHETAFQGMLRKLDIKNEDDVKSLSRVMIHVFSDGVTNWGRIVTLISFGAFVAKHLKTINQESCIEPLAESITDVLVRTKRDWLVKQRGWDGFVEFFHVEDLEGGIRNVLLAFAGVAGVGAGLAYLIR

Structure (SMILES)	IC50 (MCL-1; MCL-1 Assay IC50 (median))	EC50 (SUDHL10 cells; [1])	IC50 (SUDHL5 cells; [2])	EC50 (SUDHL10 cells; [3])	IC50 (SUDHL5 cells; [4])	EC50 (SUDHL10 cells; [5])	IC50 (SUDHL5 cells; [6])	IC50 (MCL-1; read-out: MCL-1 Assay IC50 (median))
CCc1c2c(nn1C)C(Cc1ccccc1)OCCCCn1c(C(=O)O)c(CCCOc3cccc4cc(F)ccc34)c3ccc(Cl)c-2c31 (racemic) [Example 92, (rac)-(rac-15)-benzyl-4-chloro-3-ethyl-7-{3-[(6-fluoro-1-naphthyl)oxy]propyl}-2-methyl-2,10,11,12,13,15-hexahydropyrazolo[4′,3′:9,10][1,6]oxazacycloundecino[8,7,6-hi]indole-8-carboxylic Acid]	3.2 nM	1100 nM	1200 nM	–	–	–	–	–
Cc1c2c(nn1C)C(CCN1CCOCC1)OCCCCn1c(C(=O)O)c(CCCOc3cccc4cc(F)ccc34)c3ccc(F)c-2c31 (single isomer, unassigned; enantiomer 2) [Example 21, 4-fluoro-7-{3-[(6-fluoronaphthalen-1-yl)oxy]propyl}-2,3-dimethyl-15-[2-(morpholin-4-yl)ethyl]-2,10,11,12,13,15-hexahydropyrazolo[4′,3′:9,10][1,6]oxazacycloundecino[8,7,6-hi]indole-8-carboxylic Acid (Enantiomer 2)]	160 nM	13000 nM	3400 nM	–	–	–	–	–
Cc1c2c(nn1C)C(C)OCCCCn1c(C(=O)O)c(CCCOc3cccc4ccccc34)c3cccc-2c31 (single isomer, unassigned; stereoisomer 1) [Example 2, 2,3,15-trimethyl-7-[3-(naphthalen-1-yloxy)propyl]-2,10,11,12,13,15-hexahydropyrazolo[4′,3′:9,10][1,6]oxazacycloundecino[8,7,6-hi]indole-8-carboxylic Acid Trifluoroacetic Acid Salt (Stereoisomer 1)]	1.2 nM	–	–	2500 nM	3500 nM	–	–	–
CCC1OCCCCn2c(C(=O)O)c(CCCOc3cccc4ccccc34)c3ccc(Cl)c(c32)-c2c1nn(C)c2C (racemic) [Example 25, (rac)-4-chloro-15-ethyl-2,3-dimethyl-7-{3-[(naphthalen-1-yl)oxy]propyl}-2,10,11,12,13,15-hexahydropyrazolo[4′,3′:9,10][1,6]oxazacycloundecino[8,7,6-hi]indole-8-carboxylic Acid]	1.9 nM	10000 nM	2300 nM	–	–	–	–	–
Cc1c2c(nn1C)C(CCN1CCOCC1)OCCCCn1c(C(=O)O)c(CCCOc3cccc4ccccc34)c3ccc(Cl)c-2c31 (single isomer, unassigned; enantiomer 1) [Example 14, 4-chloro-2,3-dimethyl-15-[2-(morpholin-4-yl)ethyl]-7-{3-[(naphthalen-1-yl)oxy]propyl}-2,10,11,12,13,15-hexahydropyrazolo[4′,3′:9,10][1,6]oxazacycloundecino[8,7,6-hi]indole-8-carboxylic Acid (Enantiomer 1)]	0.53 nM	–	–	–	–	31 nM	28 nM	–
Cc1c2c(nn1C)C(C)OCCCCn1c(C(=O)O)c(CCCOc3cccc4ccccc34)c3cccc-2c31 (single isomer, unassigned; stereoisomer 2) [Example 3, 2,3,15-trimethyl-7-[3-(naphthalen-1-yloxy)propyl]-2,10,11,12,13,15-hexahydropyrazolo[4′,3′:9,10][1,6]oxazacycloundecino[8,7,6-hi]indole-8-carboxylic Acid Trifluoroacetic Acid Salt (Stereoisomer 2)]	22 nM	–	–	> 33000 nM	20000 nM	–	–	–
CCc1c2c(nn1C)C1CCCCN1CCCCn1c(C(=O)O)c(CCCOc3cccc4ccccc34)c3ccc(Cl)c-2c31 (racemic) [Example 102, (rac)-18-chloro-1-ethyl-2-methyl-15-[3-(1-naphthyloxy)propyl]-2,3b,4,5,6,7,9,10,11,12-decahydropyrazolo[3′,4′:8,9]pyrido[1′,2′:6,7][1,6]diazacycloundecino[10,11,1-hi]indole-14-carboxylic Acid]	1.4 nM	1000 nM	1400 nM	–	–	–	–	–
Cc1c2c(nn1C)C(CCN1CCOCC1)OCCCCn1c(C(=O)O)c(CCCOc3cccc4ccccc34)c3ccc(Cl)c-2c31 (single isomer, unassigned; enantiomer 2) [Example 15, 4-chloro-2,3-dimethyl-15-[2-(morpholin-4-yl)ethyl]-7-{3-[(naphthalen-1-yl)oxy]propyl}-2,10,11,12,13,15-hexahydropyrazolo[4′,3′:9,10][1,6]oxazacycloundecino[8,7,6-hi]indole-8-carboxylic Acid (Enantiomer 2)]	65 nM	–	–	–	–	11000 nM	2500 nM	–
CCc1c2c(nn1C)C(CCN1CCOCC1)OCCCCn1c(C(=O)O)c(CCCOc3cccc4ccccc34)c3ccc(F)c-2c31 (racemic) [Example 10, (rac)-3-ethyl-4-fluoro-2-methyl-15-[2-(morpholin-4-yl)ethyl]-7-[3-(naphthalen-1-yloxy)propyl]-2,10,11,12,13,15-hexahydropyrazolo[4′,3′:9,10][1,6]oxazacycloundecino[8,7,6-hi]indole-8-carboxylic Acid]	0.72 nM	220 nM	160 nM	–	–	–	–	–

Other lines, results leading:

IC50 (MCL-1; MCL-1 Assay IC50 (median))	EC50 (SUDHL10 cells; [1])	IC50 (SUDHL5 cells; [2])	EC50 (SUDHL10 cells; [3])	IC50 (SUDHL5 cells; [4])	EC50 (SUDHL10 cells; [5])	IC50 (SUDHL5 cells; [6])	IC50 (MCL-1; read-out: MCL-1 Assay IC50 (median))	Structure (SMILES)
0.48 nM	–	–	–	–	26 nM	11 nM	–	CCc1c2c(nn1C)C(CCN1CCOCC1)OCCCCn1c(C(=O)O)c(CCCOc3cccc4cc(F)ccc34)c3ccc(F)c-2c31 (single isomer, unassigned; enantiomer 1) [Example 50, (+)-3-ethyl-4-fluoro-7-{3-[(6-fluoronaphthalen-1-yl)oxy]propyl}-2-methyl-15-[2-(morpholin-4-yl)ethyl]-2,10,11,12,13,15-hexahydropyrazolo[4′,3′:9,10][1,6]oxazacycloundecino[8,7,6-hi]indole-8-carboxylic Acid (Enantiomer 1)]
1.1 nM	980 nM	410 nM	–	–	–	–	–	Cc1c2c(nn1C)C(CCO)OCCCCn1c(C(=O)O)c(CCCOc3cccc4ccccc34)c3ccc(Cl)c-2c31 (racemic) [Example 26, (rac)-4-chloro-15-(2-hydroxyethyl)-2,3-dimethyl-7-{3-[(naphthalen-1-yl)oxy]propyl}-2,10,11,12,13,15-hexahydropyrazolo[4′,3′:9,10][1,6]oxazacycloundecino[8,7,6-hi]indole-8-carboxylic Acid]
1.1 nM	7200 nM	2700 nM	–	–	–	–	–	Cc1c2c(nn1C)C(C1CC1)OCCCCn1c(C(=O)O)c(CCCOc3cccc4ccccc34)c3ccc(Cl)c-2c31 (racemic) [Example 28, (rac)-4-Chloro-15-cyclopropyl-2,3-dimethyl-7-{3-[(naphthalen-1-yl)oxy]propyl}-2,10,11,12,13,15-hexahydropyrazolo[4′,3′:9,10][1,6]oxazacycloundecino[8,7,6-hi]indole-8-carboxylic Acid]
0.66 nM	360 nM	200 nM	–	–	–	–	–	Cc1c2c(nn1C)C(CCN1CCOCC1)OCCCCn1c(C(=O)O)c(CCCOc3cccc4ccccc34)c3ccc(F)c-2c31 (racemic) [Example 7, (rac)-4-fluoro-2,3-dimethyl-15-[2-(morpholin-4-yl)ethyl]-7-[3-(naphthalen-1-yloxy)propyl]-2,10,11,12,13,15-hexahydropyrazolo[4′,3′:9,10][1,6]oxazacycloundecino[8,7,6-hi]indole-8-carboxylic Acid]
3.8 nM	6600 nM	170 nM	–	–	–	–	–	CCc1c2c(nn1C)C(C(F)(F)F)OCCCCn1c(C(=O)O)c(CCCOc3cccc4ccccc34)c3ccc(Cl)c-2c31 (racemic) [Example 27, (rac)-4-Chloro-3-ethyl-2-methyl-7-{3-[(naphthalen-1-yl)oxy]propyl}-15-(trifluoromethyl)-2,10,11,12,13,15-hexahydropyrazolo[4′,3′:9,10][1,6]oxazacycloundecino[8,7,6-hi]indole-8-carboxylic Acid]
0.88 nM	160 nM	400 nM	–	–	–	–	–	CCc1c2c(nn1C)C(CC(C)(C)O)OCCCCn1c(C(=O)O)c(CCCOc3cccc4cc(F)ccc34)c3ccc(Cl)c-2c31 (racemic) [Example 52, (rac)-4-chloro-3-ethyl-7-{3-[(6-fluoronaphthalen-1-yl)oxy]propyl}-(15-rac)-(2-hydroxy-2-methylpropyl)-2-methyl-2,10,11,12,13,15-hexahydropyrazolo[4′,3′:9,10][1,6]oxazacycloundecino[8,7,6-hi]indole-8-carboxylic Acid]
1.6 nM	140 nM	110 nM	–	–	–	–	–	Cc1c2c(nn1C)C(CCN1CCOCC1)OCCCCn1c(C(=O)O)c(CCCOc3cccc4ccccc34)c3ccc(Cl)c-2c31 (racemic) [Example 13, (rac)-4-chloro-2,3-dimethyl-15-[2-(morpholin-4-yl)ethyl]-7-{3-[(naphthalen-1-yl)oxy]propyl}-2,10,11,12,13,15-hexahydropyrazolo[4′,3′:9,10][1,6]oxazacycloundecino[8,7,6-hi]indole-8-carboxylic Acid]
–	–	–	–	–	130 nM	340 nM	1.1 nM	CCc1c2c(nn1C)C1CCCN1CCCCn1c(C(=O)O)c(CCCOc3cccc4cc(F)ccc34)c3ccc(Cl)c-2c31 (single isomer, unassigned; (+)) [Example 105, (+)-17-chloro-1-ethyl-14-{3-[(6-fluoronaphthalen-1-yl)oxy]propyl}-2-methyl-3b,4,5,6,8,9,10,11-octahydro-2H-pyrazolo[3′,4′:8,9]pyrrolo[1′,2′:6,7][1,6]diazacycloundecino[10,11,1-hi]indole-13-carboxylic Acid]
